Measured values taken from ChEMBL document CHEMBL5223082, “Alkyl-Aryl-Vancomycins: Multimodal Glycopeptides with Weak Dependence on the Bacterial Metabolic State” (J Med Chem, 2021).

Tests used:
Type in all cases: functional
Staphylococcus aureus [1] = assay: Bactericidal activity against methicillin-resistant Staphylococcus aureus ATCC 33591 incubated for 24 hrs in broth solution followed by culturing for 24 hrs on agar plate by spot plating method; settings: time 48 hrs
Staphylococcus aureus [2] = assay: Bactericidal activity against methicillin-resistant Staphylococcus aureus ATCC 33591 assessed as log reduction in bacterial colonies at 2XMIC incubated for 24 hrs in broth solution followed by culturing for 24 hrs on agar plate by spot plating method; settings: time 48 hrs
Enterococcus = assay: Bactericidal activity against Vancomycin-resistant Enterococci assessed as log reduction in bacterial colonies at 2XMIC incubated for 24 hrs in broth solution followed by culturing for 24 hrs on agar plate by spot plating method; settings: time 48 hrs
Bacillus subtilis = assay: Antibacterial activity against Bacillus subtilis 168 assessed as concentration that requires for bacterial growth retardation measured for every 30 mins
Staphylococcus aureus [3] = assay: Antibacterial activity against Methicillin-resistant Staphylococcus aureus ATCC 33591 assessed as time duration of post-antibiotic effect for suppression of bacterial growth at 10XMIC incubated for 1 hr in broth solution followed by washing for drug removal and subsequent plating on nutrient agar plate

Work on `CCCCCCCCCCNC(=O)C[N+](C)(C)CCCNC(=O)c1ccc(CN[C@@]2(C)C[C@H](O[C@H]3[C@H](Oc4c5cc6cc4Oc4ccc(cc4Cl)[C@@H](O)[C@@H](NC(=O)[C@@H](CC(C)C)NC)C(=O)N[C@@H](CC(N)=O)C(=O)N[C@H]6C(=O)N[C@H]4C(=O)N[C@H](C(=O)N[C@H](C(=O)O)c6cc(O)cc(O)c6-c6cc4ccc6O)[C@H](O)c4ccc(c(Cl)c4)O5)O[C@H](CO)[C@@H](O)[C@@H]3O)O[C@@H](C)[C@H]2O)cc1` yielded an MBC (Staphylococcus aureus [1]) of 0.9 µM, an Activity (Staphylococcus aureus [2]) of 6 log10CFU/ml and an Activity (Enterococcus) of 5 log10CFU/ml. For the same molecule, the EC (Bacillus subtilis) was 0.06 µM and the Time (Staphylococcus aureus [3]) was 23 h.
